In patent US8927659B2, “Resorbable phenolic polymers” (TYRX, Inc., priority 2005, dated 2015):
Values after ≈ are worked out from the molar mass of the structure shown.

Test: Water solubility of monomer building blocks (Tables 1 and 2)
Format: physicochemical
Conditions: for solubility: water

solubility (Table 2, unit inferred) [µg/mL] | Structure (SMILES) | other results
– | NC(C(=O)O)c1ccc(O)cc1 (centres unmarked) [Hydroxyphenyl glycine] | solubility: 5000 µg/mL (≈ 29.9 mM)
– | O=C(O)COCC(=O)O [Diglycolic acid] | Water Solubility (Table 2, unit not given): Water soluble
8000 (≈ 57.9 mM) | O=C(O)c1ccc(O)cc1 [4-hydroxy benzoic acid] | –
1630 (≈ 9.81 mM) | O=C(O)CCc1ccc(O)cc1 [DAT] | –

Structure (SMILES) | solubility (Table 2, unit inferred) [µg/mL] | other results
O=C(O)CCCC(=O)O [Glutaric acid] | 640000 (≈ 4840 mM) | –
